In data set [1] the test system is passive cutaneous anaphylaxis (PCA). Nature of the data set: Passive cutaneous anaphylaxis (PCA) in rats. Type of data set: in vivo, Wistar rats. The conditions noted are these: rat, IP; for PCA Response 1st Spot / PCA Response 2nd Spot: weal score per animal (N 1-3); for % Inhibition: relative to vehicle control group; for Total PCA Response: sum of scores of 3 animals. The method, then:
CBP501 (SEQ ID NO: 80) was evaluated for anti-allergic activity in a model of passive cutaneous anaphylaxis (PCA) in Wistar rats. CBP501, at doses of 20, 10, and 5 mg/kg, was administered intraperitoneally (IP) 30 minutes before challenge with a mixture of ovalbumin and Evans Blue dye.
CBP501 was dissolved in 0.9% NaCl. CBP501, at 20, 10 and 5 mg/kg, was administered intraperitoneally (IP) 30 min before challenge with a mixture of ovalbumin and Evans Blue dye.
Animals: Male or female Wistar rats were provided by the animal breeding center of MDS Pharma Services-Taiwan Ltd. Space allocation for 6 animals was 45×23×21 cm. All animals were maintained in a hygienic environment in a controlled temperature (21.5-22.5° C.) and humidity (50%-70%) environment, with 12 hour light-dark cycles for at least one week, housed in the MDS Pharma Services-Taiwan Laboratory, prior to being used. All aspects of this work including housing, experimentation and disposal of animals were performed in general accordance with the International Guiding Principles for Biomedical Research Involving Animals (CIOMS Publication No. ISBN 92 90360194, 1985).
Chemicals: Cyproheptadine-HCl (RBI-USA), ethanol absolute (Merck, Germany), distilled water (in-house), Evans Blue (Fluka, Switzerland), and ovalbumin (Sigma-Aldrich, USA) were used.
Method of administration: Five groups of three (3) Wistar-derived male rats weighing 80+/−10 g were passively sensitized 16 hours earlier by intradermal injection of reaginic (IgE) antiovalbumin serum (0.05 ml) on two spots of the dorsal surface. […] Within 30 minutes after administration of CBP501, the animals were challenged intravenously (IV) with a mixture of ovalbumin (1 mg) and Evans Blue dye (5 mg). Animals were sacrificed 30 minutes after challenge.
Results: Two measured weal diameters were averaged for each animal and scored 0 if <0.05 cm, 1 if 0.05-0.2 cm, 2 if 0.2-0.4 cm, 3 if 0.4-0.6 cm, 4 if 0.6-0.8 cm and 5 if >0.8 cm. Maximum possible score for each animal totals 2×5=10. Inhibition of the resulting PCA blue colored weal by 50 percent or more relative to the vehicle control group indicates possible antiallergic activity. Results are shown in Table 1, below, where significant changes are indicated by an asterisk(*).

For data set [2], the system named is HIV-1 strain WeJo. Nature of the data set: Inhibition of HIV-1 replication in PBMC (extracellular p24). Format: cell-based. The conditions noted are these: HIV-1 strain WeJo in PBMC. The method, then: (§1) CBP501 was tested for antiviral activity against HIV-1 in peripheral blood mononuclear cells (PBMC) using the clinical pediatric HIV strain WeJo. PBMCs were derived from normal HIV-1-negative donors, and cultured under conditions which promote cell survival and HIV replication. Antiviral activity was measured by detecting the amount of extracellular HIV-1p24 protein in a sample, where a decrease in p24 levels indicated antiviral activity. Cytotoxity was measured by a tetrazolium dye reduction method. Antiviral activity was analyzed for a series of dilutions of a stock solution of 100 μg/ml CBP501. The experiments were performed using serial dilutions of the compound, generating a series of concentrations from 0.3125 to 80 μg/ml CBP501.

Data set [3] in a line: Cytotoxicity in PBMC (tetrazolium dye reduction). Format: cell-based. As to conditions: human, peripheral blood mononuclear cells (PBMC), highest concentration tested 80 μg/ml, called an estimate, read-out: TC50 (concentration decreasing cell viability by 50%). The method, then: as §1
Data set [4] has as its system peripheral blood mononuclear cells (PBMC). Kind of data set: Cytotoxicity in PBMC (tetrazolium dye reduction). Type of data set: cell-based. The method, then:
as §1

Data set [5] relates to HIV-1 strain Ba-L. Nature of the data set: Inhibition of HIV-1 replication in human monocyte/macrophages (extracellular p24). Format: cell-based. As to conditions: HIV-1 strain Ba-L in monocyte/macrophages. The method, then:
as §1, with “evaluated” for “tested”, “activity” for “activity against HIV-1”, “monocyte/macrophages” for “peripheral blood mononuclear cells (PBMC)”, “the” for “the clinical pediatric”, “Ba-L. Monocyte/macrophages” for “WeJo. PBMCs”

Data set [6] in a line: Cytotoxicity in monocyte/macrophages (tetrazolium dye reduction). Type of data set: cell-based, human. As to conditions: human, highest concentration tested 80 μg/ml, called an estimate, read-out: TC50 (concentration decreasing cell viability by 50%). Here is the method:
as §1, with “evaluated” for “tested”, “activity” for “activity against HIV-1”, “monocyte/macrophages” for “peripheral blood mononuclear cells (PBMC)”, “the” for “the clinical pediatric”, “Ba-L. Monocyte/macrophages” for “WeJo. PBMCs”

The subject of data set [7] is monocyte/macrophages. The data set is described as above. Type of data set: cell-based, human. Here is the method: as §1, with “evaluated” for “tested”, “activity” for “activity against HIV-1”, “monocyte/macrophages” for “peripheral blood mononuclear cells (PBMC)”, “the” for “the clinical pediatric”, “Ba-L. Monocyte/macrophages” for “WeJo. PBMCs”
In data set [8] the test system is adjuvant-induced arthritis. The conditions noted are these: rat.
Data set [9] deals with kinases involved in the cell cycle G2 checkpoint, including mitogen activated kinase p38. As to conditions: as disclosed in U.S. application Ser. No. 10/347,145; cited from earlier work.
In data set [10] the test system is 14-3-3 protein. The conditions noted are these: as disclosed in U.S. application Ser. No. 10/347,145; cited from earlier work.
The mark [11] stands for this setting: 5 mg/kg, 30 min before challenge.
The mark [12] stands for this setting: 10 mg/kg, 30 min before challenge.
[13] abbreviates: 20 mg/kg, 30 min before challenge.
Setting [14] is: highest concentration tested 80 μg/ml, called an estimate.

SMILES strings stand for the structures. Values after ≈ are worked out from the molar mass of the structure shown. Values joined by “and” are separate entries in the source; they are usually repeats but may differ in a detail not shown here. Equal entries are not always repeated. Structures can show the parent of a compound that is named as a salt. Where two headings read alike, the source gives them in different places. Marks after values point to notes of the source that are not given here. Where a SMILES comes first, the peptide text is derived from it. [ ]: non-standard residue; d: D form. dPhe(F5) = N[C@H](Cc1c(F)c(F)c(F)c(F)c1F)C(=O)O; dBpa = N[C@H](Cc1ccc(C(=O)c2ccccc2)cc1)C(=O)O; dCha = N[C@H](CC1CCCCC1)C(=O)O

A word on the % Inhibition: it is how much of the control response was suppressed. Turning to `N=C(N)NCCC[C@@H](NC(=O)[C@@H](CCCNC(=N)N)NC(=O)[C@@H](CCC(N)=O)NC(=O)[C@@H](CCCNC(=N)N)NC(=O)[C@@H](CCCNC(=N)N)NC(=O)[C@@H](CCCNC(=N)N)NC(=O)[C@@H](CC1CCCCC1)NC(=O)[C@@H](Cc1c(F)c(F)c(F)c(F)c1F)NC(=O)[C@@H](CO)NC(=O)[C@@H](Cc1c[nH]c2ccccc12)NC(=O)[C@@H](CO)NC(=O)[C@H](N)Cc1ccc(C(=O)c2ccccc2)cc1)C(=O)O` [CBP501, (d-Bpa)(d-Ser)(d-Trp)(d-Ser)(d-Phe-2,3,4,5,6-F)(d-Cha)(d-Arg)(d-Arg)(d-Arg)(d-Gln)(d-Arg)(d-Arg)] (H-[dBpa][dS][dW][dS][dPhe(F5)][dCha][dR][dR][dR][dQ][dR][dR]-OH), the “PCA Response 1st Spot” value is 0 (0 if <0.05 cm) and 1 (1 if 0.05-0.2 cm) (2×) in [1] (setting [11]); 0 (0 if <0.05 cm) (2×) and 1 (1 if 0.05-0.2 cm) in data set [1] (setting [12]); 0 (0 if <0.05 cm) (2×) and 1 (1 if 0.05-0.2 cm) in data set [1] (setting [13]). The “PCA Response 2nd Spot” value was 0 (0 if <0.05 cm) and 1 (1 if 0.05-0.2 cm) (2×) in data set [1] (setting [11]); 0 (0 if <0.05 cm) (2×) and 1 (1 if 0.05-0.2 cm) in data set [1] (setting [12]); 0 (0 if <0.05 cm) (2×) and 1 (1 if 0.05-0.2 cm) in data set [1] (setting [13]). Further, the “% Inhibition” value in data set [1] (5 mg/kg, 5 mg/kg) is given as 87%; in data set [1] (10 mg/kg, 10 mg/kg), 93%; in data set [1] (20 mg/kg, 20 mg/kg) it was 93%. The “Total PCA Response” value in data set [1] (5 mg/kg) is reported as 4; in [1] (10 mg/kg), 2; in data set [1] (20 mg/kg) it was 2. Further, the “TI (therapeutic index=TC50/IC50)” value in data set [2] is over 113; in data set [5], over 12.3. Also, the “IC50 (concentration that inhibited virus replication by 50%)” value in [2] (p24) was 0.71 µg/mL (≈ 0.368 µM); in data set [5] (p24), 6.5 µg/mL (≈ 3.37 µM). For the same compound, the CC50 in data set [3] and in [6] was over 80 µg/mL each time. In data set [4] (80 μg/ml), the “cell viability at the highest concentration tested (in words)” value is listed as “hardly affected”. Moreover, the “TC50 (concentration decreasing cell viability by 50%)” value in data set [4] (setting [14]) and in data set [7] (setting [14]) was over 80 µg/mL in each case. In addition, in data set [7] (80 μg/ml), the “decrease of cell viability at the highest concentration tested” value was “about 25%”. Moreover, the “activity in acute phase (in words)” value in [8] (IP, 2.5 mg/kg ×5 doses) was “moderate but non-significant activity”. Further, in data set [8] (IP, 2.5 mg/kg ×5 doses), the “activity in late phase (in words)” value was “no activity”. Besides, the “anti-inflammatory activity in both acute and late phase (in words)” value in data set [8] (IP, 5 mg/kg once daily for 5 consecutive days) is “significant anti-inflammatory activity”; in [8] (IP, 10 mg/kg single dose) it was “significant anti-inflammatory activity”. In addition, the “% Inhibition relative to Vehicle treated control, Days (1-5)” value in data set [8] (in vivo, ip, 2.5 mg/kg) is recorded as 27%; in data set [8] (in vivo, ip, 5 mg/kg), 51* %; in [8] (in vivo, ip, 10 mg/kg), 61* %. In addition, the “% Inhibition relative to Vehicle treated control, Days (14-18)” value in data set [8] (in vivo, ip, 2.5 mg/kg) is on record as −11%; in data set [8] (in vivo, ip, 5 mg/kg) it was 34* %; in [8] (in vivo, ip, 10 mg/kg) it was 31* %. Moreover, in data set [9], the “inhibition of phosphorylation activities of kinases involved in the cell cycle G2 checkpoint (in words)” value is recorded as “inhibits the phosphorylation activities”. Moreover, the “binding to 14-3-3 protein (in words)” value in [10] was “binds”.
Consider `CN1CCC(=C2c3ccccc3C=Cc3ccccc32)CC1` [Cyproheptadine, Cyproheptadine-HCl, reference compound], for which the “% Inhibition” value in data set [1] (1 mg/kg, 1 mg/kg) is reported as 87* %. Further, the “% Inhibition” value in data set [1] (1 mg/kg, listed as cyproheptadine-HCl, 1 mg/kg) is 87%. Moreover, in data set [1] (1 mg/kg), the “Total PCA Response” value is 4; the “PCA Response 1st Spot” value was 0 (0 if <0.05 cm) and 1 (1 if 0.05-0.2 cm) (2×); the “PCA Response 2nd Spot” value was 0 (0 if <0.05 cm) and 1 (1 if 0.05-0.2 cm) (2×).
Consider `C[C@]12CCC(=O)C=C1CC[C@@H]1[C@@H]2[C@@H](O)C[C@@]2(C)[C@H]1CC[C@]2(O)C(=O)CO` [Hydrocortisone, hydrocortisone, reference compound], for which, in data set [8] (30 mg/kg daily for 5 days), the “activity in the acute phase (in words)” value is reported as “significant activity” and the “activity in the late phase (in words)” value is on record as “near-significant activity”. The “% Inhibition relative to Vehicle treated control, Days (14-18)” value in data set [8] (PO, 30 mg/kg per dose × 5 doses, left hind paw volume, late phase) came out at 29%. Besides, the “% Inhibition relative to Vehicle treated control, Days (1-5)” value in [8] (PO, 30 mg/kg per dose × 5 doses, right hind paw volume, acute phase) was 42* %.

These data come from patent US7479484B2, “Peptides and peptidomimetics having immune-modulating, anti-inflammatory, and anti-viral activity” (priority 2003, dated 2009).
